From US20200345846A1, “CORROLE COMPOSITIONS” (TECHNION RESEARCH & DEVELOPMENT FOUNDATION LIMITED, priority 2017, published 2020)

System: DU-145 prostate cancer cell line
Assay: FACS analysis with annexin V-FITC kit (apoptosis)
Format: cell-based, human
Details: analysis after 4 h
Method: Cells (DU-145) were seeded in 6-well microtiter plates (5×10^4 cells/mL; 3 mL per well) 24 h before the addition of assigned compounds/albumin particles. At the time of drug treatment, stock solutions of compounds were diluted to 10-fold the desired final test concentrations with EMEM medium. Aliquots of 300 μL of these diluted solutions were added to the appropriate microtiter wells containing 2700 μL of medium, resulting in the required final drug concentrations (according to assigned concentration). The final concentration of DMSO (given that the compound required DMSO for solvation) in test culture was <1%. […] Following 24-72 h of exposure at 37° C., cells were re-suspended with trypsin into PBS pH 7.2 and pelleted at 3000 rpm for 5 min. Samples were washed under PBS×3 times. Samples were taken for measurement using a BD LSR-II Analyzer supported with BD FACSDiVa™ Software Version 6.1 for data analysis. Corrole fluorescence was measured using appropriate filters for excitation (405 nm, DAPI) and emission (Ds-RED). FIGS. 15A-F present FACS analysis of DU-145 prostate cancer cell line treated with an annexin V-FITC kit after 4 h incubation with: HSA control; FIGS. 15B-F present 5-Ga HSA NP's 2, 5, 10, 15, 20 μM respectively. […] Analysis of β-lapachone was done after 4 h since it induces apoptosis faster.

## CC1(C)CCC2=C(O1)c1ccccc1C(=O)C2=O [Corrole 0-lapachone, β-lapachone]
  shift of annexin V-FITC distribution curve: strong shift of the distribution curve towards stronger mean fluorescence
